target: T1, b-Raf (Homo sapiens, UniProt P15056, V600E); assay: Raf cellular assay (phospho-Mek1/2 ELISA in A2058 cells); type: cell-based; details: Table 3; human melanoma A2058 cells (b-Raf mutation), Mek1/2 Ser217/221 phosphorylation, 1 hour incubation; read-out: pMEK IC50
T1 construct: endogenous in cells; host or cells: A2058 human melanoma cells
Protocol: Compounds of the present invention were evaluated for potency against b-Raf using a cellular assay as follows. The activity of Raf kinases in cells is determined by measuring the level of phosphorylation of Mek1/2 at serine 217/221, the site phosphorylated by Raf kinases in vivo. Mek1/2 Ser phosphorylation is measured using anti-phospho-Mek1/2 antibodies (Cell Signaling #9121) in an ELISA format.
Healthy growing human melanoma A2058 cells (harboring a b-Raf mutation) are used for the assay. A2058 cells are grown in 10% FBS DMEM medium. When the cells are near 85%+confluence, the cells are rinsed with PBS once and trypsinized with trypsin/EDTA for 3 minutes. The cells are resuspended in 10% FBS DMEM and are centrifuged down at 1000 rpm for 5 minutes. The cells are resuspended in 10% FBS DMEM and counted on a cell counter. The cells are seeded at 50,000 cells/well in a volume of 100 μL/well in 10% FBS DMEM in a 96 well flat-bottom plate. The negative control wells receive only 100 μL of 10% FBS DMEM medium without cells. The plate is incubated overnight in a cell culture incubator with 5% CO2 at 37° C.
On day 2, testing compounds are prepared in 10% FBS DMEM medium and serially diluted at 1:3 for 11 test concentrations. Each concentration of the compounds is tested in duplicate. The compound solutions are added at 25 μL/well to the corresponding wells in the cell plate, and 25 μL/well of the vehicle (0.5% DMSO in 10% FBS DMEM) is added to the negative control wells (no cells) and the positive control wells (cells without compounds). The plate is incubated for 1 hour in a cell culture incubator with 5% CO2 at 37° C. After 1 hour of incubation, the medium is removed, 100 μL/well of cell lysis buffer is added into the cell plate, and the plate is shaken for 15 minutes at room temperature. After 15 minutes, the cell lysates are transferred to an ELISA plate (pre-coated with anti-Mek1 anti-body, Cell Signaling #2352), and the plate is incubated with gentle shaking for 2 hours at room temperature. After 2 hours, the contents of the wells are aspirated and the wells are washed 4 times with wash buffer. 100 μL of phospho-Mek1/2 detection antibody (Cell Signaling #9121) is added into each well and the plate is incubated with gentle shaking for 1 hour at room temperature. After 1 hour, the wells are aspirated and washed 4 times with wash buffer. 100 μL of anti-rabbit IgG HRP-linked antibody (Cell Signaling #7074) is added to each well, and the plate is incubated with gentle shaking for 1 hour at room temperature. After 1 hour, the contents of the wells are aspirated and the wells are washed 4 times with wash buffer. 100 μL of TMB substrate solution (Sigma #T0440) is added into each well, and the plate is incubated with gentle shaking at room temperature for 10 to 20 minutes. After color development, 100 μL of stop solution (1N hydrochloric acid) is added to each well to terminate color development. The plate is read at 450 nm on an ELISA plate reader.

T1 sequence (P15056 whole entry V600E): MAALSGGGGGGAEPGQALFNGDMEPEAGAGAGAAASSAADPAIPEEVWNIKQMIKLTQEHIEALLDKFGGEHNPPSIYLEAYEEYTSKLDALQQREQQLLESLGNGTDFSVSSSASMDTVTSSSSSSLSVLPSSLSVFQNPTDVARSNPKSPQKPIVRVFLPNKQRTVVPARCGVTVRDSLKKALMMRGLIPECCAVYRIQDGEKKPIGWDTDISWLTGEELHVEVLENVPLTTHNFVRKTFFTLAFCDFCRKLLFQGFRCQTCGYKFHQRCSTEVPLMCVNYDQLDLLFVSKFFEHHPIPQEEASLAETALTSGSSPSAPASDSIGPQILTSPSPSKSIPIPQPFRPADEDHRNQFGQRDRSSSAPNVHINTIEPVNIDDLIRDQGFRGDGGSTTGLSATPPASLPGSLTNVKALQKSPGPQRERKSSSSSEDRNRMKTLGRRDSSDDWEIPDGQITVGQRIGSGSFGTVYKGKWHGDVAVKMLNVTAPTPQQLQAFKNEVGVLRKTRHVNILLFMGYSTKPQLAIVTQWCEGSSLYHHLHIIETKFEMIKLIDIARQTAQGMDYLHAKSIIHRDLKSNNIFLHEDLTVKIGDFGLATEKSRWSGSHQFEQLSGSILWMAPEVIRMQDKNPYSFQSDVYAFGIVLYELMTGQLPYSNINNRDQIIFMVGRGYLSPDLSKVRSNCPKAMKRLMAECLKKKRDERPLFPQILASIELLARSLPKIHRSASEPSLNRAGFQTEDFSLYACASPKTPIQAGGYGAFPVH

SMILES | IC50
COc1nc(-c2nn(C(C)(C)C)cc2-c2ccnc(NCCC#N)n2)cnc1N [Example B-30, 3-({4-[3-(5-amino-6-methoxypyrazin-2-yl)-1-tert-butyl-1H-pyrazol-4-yl]pyrimidin-2-yl}amino)propanenitrile] | 0.2 nM
Cc1c[nH]c2ncc(-c3nn(C(C)(C)CO)cc3-c3ccnc(N)n3)cc12 [Example B-58, 2-[4-(2-aminopyrimidin-4-yl)-3-(3-methyl-1H-pyrrolo[2,3-b]pyridin-5-yl)-1H-pyrazol-1-yl]-2-methylpropan-1-ol] | 9.86 nM
CC(C)(C#N)n1cc(-c2ccnc(N)n2)c(-c2cnc3[nH]cc(Cl)c3c2)n1 [Example G-6, 2-[4-(2-aminopyrimidin-4-yl)-3-(3-chloro-1H-pyrrolo[2,3-b]pyridin-5-yl)-1H-pyrazol-1-yl]-2-methylpropanenitrile] | 17.3 nM
OCCNc1nccc(-c2cn(CC(F)F)nc2-c2cnc3[nH]cc(Cl)c3c2)n1 [Example B-106, 2-({4-[3-(3-chloro-1H-pyrrolo[2,3-b]pyridin-5-yl)-1-(2,2-difluoroethyl)-1H-pyrazol-4-yl]pyrimidin-2-yl}amino)ethanol] | 10.5 nM
CC(C)(CO)n1cc(-c2ccnc(NCC(F)F)n2)c(-c2cnc3[nH]ccc3c2)n1 [Example B-48, 2-[4-{2-[(2,2-difluoroethyl)amino]pyrimidin-4-yl}-3-(1H-pyrrolo[2,3-b]pyridin-5-yl)-1H-pyrazol-1-yl]-2-methylpropan-1-ol] | 30.3 nM
N#CCCNc1nccc(-c2cn(CC(F)F)nc2-c2cnc3cc[nH]c3c2)n1 [Example B-36, 3-({4-[1-(2,2-difluoroethyl)-3-(1H-pyrrolo[3,2-b]pyridin-6-yl)-1H-pyrazol-4-yl]pyrimidin-2-yl}amino)propanenitrile] | 458 nM
COc1cc(-c2nn(C(C)(C)C)cc2-c2ccncn2)cnc1N [Example F-3, 5-(1-tert-butyl-4-pyrimidin-4-yl-1H-pyrazol-3-yl)-3-methoxypyridin-2-amine] | 55.4 nM
CC(C)n1cc(-c2ccnc(N)c2)c(-c2cnc3[nH]cc(Cl)c3c2)n1 [Example H-1, 4-(3-(3-chloro-1H-pyrrolo[2,3-b]pyridin-5-yl)-1-isopropyl-1H-pyrazol-4-yl)pyridin-2-amine] | 26 nM
Cc1c[nH]c2ncc(-c3nn(C(C)C)cc3-c3ccnc(N)n3)cc12 [Example B-62, 4-[1-isopropyl-3-(3-methyl-1H-pyrrolo[2,3-b]pyridin-5-yl)-1H-pyrazol-4-yl]pyrimidin-2-amine] | 48.1 nM
C[C@H](O)CNc1nccc(-c2cn(C3CCOC3)nc2-c2cnc3[nH]cc(Cl)c3c2)n1 (stereo partly drawn) [Example G-1, (2S)-1-(4-(3-(3-chloro-1H-pyrrolo[2,3-b]pyridin-5-yl)-1-(tetrahydrofuran-3-yl)-1H-pyrazol-4-yl)pyrimidin-2-ylamino)propan-2-ol] | 16.3 nM
O=S(=O)(C1CC1)N1CCC(Nc2nccc(-c3cn(CC(F)F)nc3-c3cnc4[nH]ccc4c3)n2)CC1 [Example B-27, N-[1-(cyclopropylsulfonyl)piperidin-4-yl]-4-[1-(2,2-difluoroethyl)-3-(1H-pyrrolo[2,3-b]pyridin-5-yl)-1H-pyrazol-4-yl]pyrimidin-2-amine] | 184 nM
CC(C)(C)n1cc(-c2ccnc(NCCC#N)n2)c(-c2cnc3c(c2)CCN3)n1 [Example B-72, 3-({4-[1-tert-butyl-3-(2,3-dihydro-1H-pyrrolo[2,3-b]pyridin-5-yl)-1H-pyrazol-4-yl]pyrimidin-2-yl}amino)propanenitrile] | 8.15 nM
COc1cc(-c2nn(C(C)C)cc2-c2ccnc(NC[C@H](C)O)n2)cnc1N [Example B-111, (2S)-1-({4-[3-(6-amino-5-methoxypyridin-3-yl)-1-isopropyl-1H-pyrazol-4-yl]pyrimidin-2-yl}amino)propan-2-ol] | 6.13 nM
Cc1n[nH]c2ncc(-c3nn(C(C)(C)CO)cc3-c3ccnc(NCCC#N)n3)cc12 [Example B-94, 3-(4-(1-(1-hydroxy-2-methylpropan-2-yl)-3-(3-methyl-1H-pyrazolo[3,4-b]pyridin-5-yl)-1H-pyrazol-4-yl)pyrimidin-2-ylamino)propanenitrile] | 13.3 nM
